Test results: patent US12390486B2, “Method for treating diastolic heart failure by inhibiting galectin-3” (Henry Ford Health System, priority 2012, dated 2025)
Where “and” joins values, the source holds several entries; their conditions need not be identical. Equal values may be shown once.

System: dogs with microembolization-induced HF
Assay: LacNAc in dogs with microembolization-induced HF (Example 2)
Assay type: in vivo, dog
Conditions: for VFIF (LV Volume fraction of interstitial fibrosis) / ODD (Oxygen diffusion distance) / VFRF (LV volume fraction of replacement fibrosis) / MCSA (myocyte cross-sectional area) / Cap/mm^2 (Capillary density) / Cardiac Output / PE/PA / Ei/Ai / Stroke Volume / Left Ventricular Fractional Area of Shortening / Left Ventricular Ejection Fraction / Left Ventricular End-Systolic Volume / Left Ventricular End-Diastolic Volume / Diastolic Aortic Pressure / Mean Aortic Pressure / Heart Rate / Systolic Aortic Pressure / DT / Systemic Vascular Resistance: individual dogs and Mean (n=3); for VFIF (LV Volume fraction of interstitial fibrosis): historical controls mean 12.95; for ODD (Oxygen diffusion distance): historical controls mean 13.10; for VFRF (LV volume fraction of replacement fibrosis): historical controls mean 13.8; for MCSA (myocyte cross-sectional area): historical controls mean 575; for Cap/mm^2 (Capillary density): historical controls mean 2063; for Cardiac Output / PE/PA / Ei/Ai / Stroke Volume / Left Ventricular Fractional Area of Shortening / Left Ventricular Ejection Fraction / Left Ventricular End-Systolic Volume / Left Ventricular End-Diastolic Volume / Diastolic Aortic Pressure / Mean Aortic Pressure / Heart Rate / Systolic Aortic Pressure / DT / Systemic Vascular Resistance: 115 mg LacNAc oral daily, 12 weeks; for Cardiac Output: PRE mean 1.41; for PE/PA: PRE mean 1.80; for Ei/Ai: PRE mean 2.98; for Stroke Volume: PRE mean 17; for Left Ventricular Fractional Area of Shortening: PRE mean 28.3; for Left Ventricular Ejection Fraction: PRE mean 30; for Left Ventricular End-Systolic Volume: PRE mean 39; for Left Ventricular End-Diastolic Volume: PRE mean 56; for Diastolic Aortic Pressure: PRE mean 62; for Mean Aortic Pressure: PRE mean 73; for Heart Rate: PRE mean 84; for Systolic Aortic Pressure: PRE mean 87; for DT: PRE mean 131; for Systemic Vascular Resistance: PRE mean 4209
Procedure: In this dog model of HF, the development of the disease is associated with an increase in the volume fraction of interstitial fibrosis in the left ventricular wall from a normal level of 3.5% (connective tissue) to as high as 25%. Dogs were treated for 3 months with daily oral administration of 115 mg of LacNAc. […] This finding is similar to that observed with MCP (Example 1), as illustrated in FIG. 2. […] All of these findings support a marked improvement of LV function and cellular remodeling sought for treatment of HFpEF.

[1] = 115 mg LacNAc oral daily for 3 months, 3 dogs
[2] = 115 mg LacNAc oral daily for 3 months
[3] = 115 mg LacNAc oral daily for 3 months, mean

Structure (SMILES): CC(=O)N[C@H]1C(O)O[C@H](CO)[C@@H](O[C@@H]2O[C@H](CO)[C@H](O)[C@H](O)[C@H]2O)[C@@H]1O (stereo partly drawn) [LacNAc, N-acetyl-D-lactosamine]
- LV ejection fraction [1]: improved LV ejection fraction
- LV relaxation (Ei/Ai, PE/PA and DT) [1]: improved LV relaxation
- capillary density [1]: increased capillary density
- myocyte hypertrophy [1]: decreased myocyte hypertrophy
- oxygen diffusion [1]: increased oxygen diffusion
- stroke volume and cardiac output [1]: increased stroke volume and cardiac output
- reduction of reactive interstitial fibrosis (115 mg LacNAc oral daily for 3 months, 3 dogs, compared to historical untreated controls matched for LV ejection fraction, gender, duration of heart failure): ~57%
- VFIF (LV Volume fraction of interstitial fibrosis) [2]: 5.27% (2×) and 6.07%
- VFIF (LV Volume fraction of interstitial fibrosis) [3]: 5.54%
- ODD (Oxygen diffusion distance) [2]: 9.18 μm and 9.48 μm and 9.11 μm
- ODD (Oxygen diffusion distance) [3]: 9.26 μm
- VFRF (LV volume fraction of replacement fibrosis) [2]: 10.4% and 13.6% and 13.8%
- VFRF (LV volume fraction of replacement fibrosis) [3]: 12.6%
- MCSA (myocyte cross-sectional area) [2]: 373 μm^2 and 393 μm^2 and 418 μm^2
- MCSA (myocyte cross-sectional area) [3]: 395 μm^2
- Cap/mm^2 (Capillary density) [2]: 2989 Cap/mm^2 and 2977 Cap/mm^2 and 3042 Cap/mm^2
- Cap/mm^2 (Capillary density) [3]: 3002 Cap/mm^2
- Cardiac Output: 2.02 L/min and 1.80 L/min and 1.67 L/min
- Cardiac Output (mean): 1.83 L/min
- PE/PA: 1.82 and 2.52 and 1.84
- PE/PA (mean): 2.06
- Ei/Ai: 4.26 and 4.43 and 3.25
- Ei/Ai (mean): 3.98
- Stroke Volume: 24 mL and 20 mL and 19 mL
- Stroke Volume (mean): 21 mL
- Left Ventricular Fractional Area of Shortening: 31% and 41% and 29%
- Left Ventricular Fractional Area of Shortening (mean): 33.7%
- Left Ventricular Ejection Fraction: 42% and 38% and 31%
- Left Ventricular Ejection Fraction (mean): 37%
- Left Ventricular End-Systolic Volume: 33 ml (2×) and 43 ml
- Left Ventricular End-Systolic Volume (mean): 36 mL
- Left Ventricular End-Diastolic Volume: 57 mL and 53 mL and 62 mL
- Left Ventricular End-Diastolic Volume (mean): 57 mL
- Diastolic Aortic Pressure: 60 mmHg and 67 mmHg and 62 mmHg
- Diastolic Aortic Pressure (mean): 63 mmHg
- Mean Aortic Pressure: 72 mmHg and 76 mmHg and 73 mmHg
- Mean Aortic Pressure (mean): 74 mmHg
- Heart Rate: 84 beats/min and 90 beats/min and 88 beats/min
- Heart Rate (mean): 87 beats/min
- Systolic Aortic Pressure: 88 mmHg (2×) and 90 mmHg
- Systolic Aortic Pressure (mean): 89 mmHg
- DT: 162 msec (2×) and 115 msec
- DT (mean): 146 ms
- Systemic Vascular Resistance: 2857 dynes-sec-cm^-5 and 3378 dynes-sec-cm^-5 and 3493 dynes-sec-cm^-5
- Systemic Vascular Resistance (mean): 3243 dynes-sec-cm^-5
